Data reported in patent publication US20180305370A1 (ORPHOMED, INC., priority 2015, published 2018).
Read-outs that look alike come from different tables or passages of the source.

Experiments:
[1] = for stability over time: 28 months, room temperature
human liver microsomes = test: Metabolic stability in human liver microsomes; conditions: 1 μM, human liver microsomes 1 mg protein/mL, up to 120 min, FIG. 1
[2] = In vivo pharmacokinetic study, IV and oral gavage
Description: The animal pharmacokinetic studies were conducted at Johns Hopkins Medical Institute using CD-1 mice (weighing about 35 gm, n=3 per time point). […] Blood collected at 0, 30 min and 1, 2, 6 and 24 hours post-dose. Blood samples for the drug were analyzed after harvesting the plasma and by LC/MS/MS as follows:
Extracts were centrifuged at 16000×g at 4° C. for 5 minutes. Supernatants (250 μL) were transferred to a new tube and dried under N2 at 45° C. for 1 hour. Samples were reconstituted with 100 μL of 30% acetonitrile, vortexed and centrifuged. Supernatants (90 μL) were transferred to LC vials and 10 μL was injected on LC/MS.

[3] = system: formalin-induced hind paw licking; test: Analgesia, formalin paw mouse study (hind paw licking time)
ORL-1 = ORL-1 (Homo sapiens, UniProt P41146); conditions: cited from earlier work
ORL-1, sequence (P41146 whole entry, species assumed): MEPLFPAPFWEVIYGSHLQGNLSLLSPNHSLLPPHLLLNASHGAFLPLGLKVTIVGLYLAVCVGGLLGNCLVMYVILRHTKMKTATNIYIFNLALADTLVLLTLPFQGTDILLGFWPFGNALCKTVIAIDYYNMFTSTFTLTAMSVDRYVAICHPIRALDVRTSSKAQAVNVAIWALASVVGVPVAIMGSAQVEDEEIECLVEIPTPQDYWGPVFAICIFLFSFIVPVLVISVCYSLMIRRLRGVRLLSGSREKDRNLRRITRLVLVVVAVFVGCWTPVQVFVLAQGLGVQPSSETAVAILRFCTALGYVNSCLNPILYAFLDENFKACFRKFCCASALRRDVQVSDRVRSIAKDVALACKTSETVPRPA

[4] = in vivo; cited from earlier work
[5] = cited from earlier work

| Compound | stability over time ([1]; listed as EGE conjugate) | stability over time ([1]; listed as compound of the invention) | HPLC Purity, September 2015 ([1]; hydrochloride salt, after 28 months at room temperature in clear glass vials) | HPLC Purity, May 2013 ([1]; hydrochloride salt, immediately after synthesis, stability baseline) | metabolism in presence of microsomal enzymes (human liver microsomes) | absolute bioavailability (ratio of area under the concentration curve after oral and IV dose) ([2]; CD-1 mice, 10 mg/kg oral gavage vs IV, FIG. 6) | bioavailability, less than morphine ([2]; animal studies versus morphine) | analgesic effect ([3]; 5 mg/kg IP, mice, FIG. 9) | activity, less than morphine ([3]; animal studies versus morphine (Example 7)) | Activity (ORL-1) | analgesic potency compared with morphine [4] | absolute bioavailability after an oral dose [5] |
| --- | --- | --- | --- | --- | --- | --- | --- | --- | --- | --- | --- | --- |
| 2-[(2S)-2-[(5R,6R,7R,14S)-9α-cyclopropylmethyl-4,5-epoxy-6,14-ethano-3-hydroxy-6-methoxymorphinan-7-yl]-3,3-dimethylbutan-2-ol]-ethanol [EGE buprenorphine hydrochloride] | unchanged over time | significantly more stable | 98.7% (AUC) | 98.6% (AUC) | rapid metabolism | about 40% | about 40% | rapid analgesic effect | about 2.5% | – | – | – |
| CO[C@]12CC[C@@]3(C[C@@H]1[C@](C)(O)C(C)(C)C)[C@H]1Cc4ccc(O)c5c4[C@@]3(CCN1CC1CC1)[C@H]2O5 [Buprenorphine, buprenorphine] | – | – | – | – | – | – | – | – | – | Agonist | about thirty times more potent | less than 10% |
